For assay [1], the target named is T1, Replicative DNA helicase DnaB (Mycobacterium tuberculosis, UniProt P9WMR3).
T1 sequence (P9WMR3 whole entry): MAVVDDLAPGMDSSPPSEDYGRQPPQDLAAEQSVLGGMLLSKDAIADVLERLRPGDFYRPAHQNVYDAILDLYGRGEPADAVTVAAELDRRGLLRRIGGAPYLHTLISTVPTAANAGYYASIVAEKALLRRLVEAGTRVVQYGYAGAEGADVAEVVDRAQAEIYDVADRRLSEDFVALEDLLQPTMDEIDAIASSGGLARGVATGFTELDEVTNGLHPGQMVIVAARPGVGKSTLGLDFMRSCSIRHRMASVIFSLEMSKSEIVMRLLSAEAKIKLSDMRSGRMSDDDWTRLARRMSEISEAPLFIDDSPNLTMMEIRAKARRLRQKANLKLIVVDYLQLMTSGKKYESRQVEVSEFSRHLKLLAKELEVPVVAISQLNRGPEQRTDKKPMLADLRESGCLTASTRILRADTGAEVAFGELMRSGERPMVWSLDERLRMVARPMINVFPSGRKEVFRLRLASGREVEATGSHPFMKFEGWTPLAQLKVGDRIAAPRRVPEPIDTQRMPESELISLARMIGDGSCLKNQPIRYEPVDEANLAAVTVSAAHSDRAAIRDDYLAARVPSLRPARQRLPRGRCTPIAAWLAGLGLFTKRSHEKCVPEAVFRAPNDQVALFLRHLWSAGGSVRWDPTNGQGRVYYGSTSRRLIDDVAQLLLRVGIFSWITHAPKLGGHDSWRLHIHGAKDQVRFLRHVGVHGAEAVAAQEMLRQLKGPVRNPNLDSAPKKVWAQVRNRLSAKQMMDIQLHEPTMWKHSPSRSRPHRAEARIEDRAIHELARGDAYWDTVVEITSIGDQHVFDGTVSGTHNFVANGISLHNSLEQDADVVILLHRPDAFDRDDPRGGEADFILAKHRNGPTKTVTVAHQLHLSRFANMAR
Put plainly: DnaB intein splicing inhibitors, dose response, biochemical, cell-free fluorescence (AID 449749). The class given is functional.

The target of a further assay is T2, Protein RecA (Mycobacterium tuberculosis, UniProt P9WHJ3).
T2 sequence (P9WHJ3 whole entry): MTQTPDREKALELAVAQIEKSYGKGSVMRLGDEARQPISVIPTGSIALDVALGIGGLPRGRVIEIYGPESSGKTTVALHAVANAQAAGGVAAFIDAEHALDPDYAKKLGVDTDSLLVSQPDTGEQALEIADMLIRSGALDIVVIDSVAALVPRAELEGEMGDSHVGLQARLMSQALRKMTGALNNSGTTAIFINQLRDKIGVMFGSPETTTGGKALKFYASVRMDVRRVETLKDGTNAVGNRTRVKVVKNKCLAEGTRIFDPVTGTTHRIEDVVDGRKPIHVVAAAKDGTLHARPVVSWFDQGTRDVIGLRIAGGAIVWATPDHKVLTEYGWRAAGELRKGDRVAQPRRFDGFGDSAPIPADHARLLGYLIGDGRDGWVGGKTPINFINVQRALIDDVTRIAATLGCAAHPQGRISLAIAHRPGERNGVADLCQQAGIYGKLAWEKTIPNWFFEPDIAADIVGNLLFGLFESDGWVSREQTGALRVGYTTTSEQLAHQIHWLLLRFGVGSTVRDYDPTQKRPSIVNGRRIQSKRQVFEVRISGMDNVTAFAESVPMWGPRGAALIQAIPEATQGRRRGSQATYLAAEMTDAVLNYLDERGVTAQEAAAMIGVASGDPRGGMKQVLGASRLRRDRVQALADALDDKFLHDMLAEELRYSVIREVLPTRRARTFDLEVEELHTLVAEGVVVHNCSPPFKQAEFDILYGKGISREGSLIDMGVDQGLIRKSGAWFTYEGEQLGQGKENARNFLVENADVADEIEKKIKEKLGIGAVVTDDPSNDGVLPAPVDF
Put plainly: Fluorescence Cell-Free Homogeneous Dose Retest to Identify Inhibitors of RecA-Intein Splicing Activity. [Related pubchem assays (depositor defined):AID2097, AID2223, AID489010, AID492950]. The class given is functional.

A further assay deals with H4. Put plainly: Luminescence Cell-Based Dose Response HTS to Identify Activators of 5'UTR Stem-Loop Driven Prion Protein mRNA Translation in H4 Neuroglioblastoma Cells. [Related pubchem assays: 1829 (Project Summary), 1814 (Primary HTS)]. It counts as functional. The conditions noted are these: Homo sapiens.
Assay [2] is described as follows: Luminescence Cell-Based Dose Response HTS to Identify Activators of Luciferase Translation or Activity in H4 […] Cells. [Related pubchem assays: 1829 (Project Summary), 1814 (Primary HTS)]. The class given is functional.
Assay [3] can be described thus: Luminescence Cell-Based Dose Confirmation HTS to Identify Activators of 5'UTR Stem-Loop Driven Alpha-Synuclein mRNA Translation in H4 Neuroglioblastoma Cells. [Related pubchem assays: 1829 (Project Summary), 1814 (Primary HTS)]. It counts as functional.
A further assay concerns INS1. Put plainly: beta cell apoptosis inhibitors, cytokine rescue, dose response, luminescence, retest (AID 449756).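 Also: cell death triggered by IL-1 beta plus TNF-alpha plus IFN-gamma mixture; protective hits raise ATP signal compared with cytokine alone wells.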 It counts as functional, cell-based. The note with it: Rattus norvegicus, INS1.
Assay [4] can be described thus: inhibitors of intracellular T. cruzi replication, confirmation, NIH3T3 host cells, beta-gal luminescence (AID 2044).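 Also: intracellular parasites grown in NIH/3T3 mouse fibroblasts as host cells; luminescent beta-galactosidase reporter signal from transgenic T. cruzi replicating inside host cells; inhibitors lower the luminescence signal.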 The class given is functional, cell-based.
The nature of assay [5]: cytotoxicity toward NIH3T3 fibroblasts, dose response, counter-screen, cell-based, ATP luminescence, mouse fibroblasts (AID 2010).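 Also: cells exposed to compound for about 90 hours before reading.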 The class given is functional. (In general: The purpose of a counterscreen is to sort out artefacts and off-target activity.)
The subject of the next assay is Streptococcus. Put plainly: Group A Streptococcus viability loss, dose response, counter-screen for streptokinase expression inhibitor project, luminescence, BacTiterGlo (AID 1915).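 Also: potency for reduction of bacterial viability or growth.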 The class given is functional, organism-based.
For assay [6], the system named is Streptococcus sp. 'group A'. Put plainly: growth inhibition of control SK(-) GAS strain, dose response, counter-screen for streptokinase expression inhibitor project, luminescence, kanamycin, BacTiterGlo, confirmation (AID 1900). It counts as functional, organism-based.
For a further assay, the target named is T3, Streptokinase A (Streptococcus pyogenes serotype M1, UniProt P10520).
T3 sequence (P10520 whole entry): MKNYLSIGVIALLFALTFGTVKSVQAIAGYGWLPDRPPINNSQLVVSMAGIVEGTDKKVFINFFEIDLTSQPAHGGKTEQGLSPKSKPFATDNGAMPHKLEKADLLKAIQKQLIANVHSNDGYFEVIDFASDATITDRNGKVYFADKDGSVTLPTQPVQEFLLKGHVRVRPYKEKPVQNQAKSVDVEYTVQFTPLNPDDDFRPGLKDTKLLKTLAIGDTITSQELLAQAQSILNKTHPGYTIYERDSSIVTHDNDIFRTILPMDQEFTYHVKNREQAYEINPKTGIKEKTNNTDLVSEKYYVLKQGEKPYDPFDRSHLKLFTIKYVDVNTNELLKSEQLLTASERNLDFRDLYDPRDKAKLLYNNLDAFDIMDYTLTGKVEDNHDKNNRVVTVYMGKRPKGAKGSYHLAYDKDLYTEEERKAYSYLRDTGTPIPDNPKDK
Put plainly: S. pyogenes streptokinase expression inhibitors, potency, dose response, plasminogen activation absorbance, OD405 (AID 1914).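 Also: secreted streptokinase activity via plasminogen activation per viability signal from cell pellet.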 It counts as functional, Streptococcus pyogenes M1 GAS.

The source made the active and inactive calls. Rule as the data show it, for most assays here: actives have a measured EC50 and inactives only a lower limit. Where only a bound is given, the exact number is not on record here.

Take `N#Cc1nc(N)nc(N(c2ccccc2)c2ccccc2)n1`: the AC50 – broadly, the midpoint of the concentration-response curve, whichever way the signal moves – in assay [1] is 39.8 µM (active). Moreover, the EC50 (commonly the midpoint of the concentration-response curve) at Protein RecA is 66.6 µM (active).

Turning to `c1ccc(-c2cc3n(c2)CCc2ccccc2-3)cc1`, the EC50 was 22.7 µM (active) in the assay on H4, 15.9 µM (active) in [2] and 10.7 µM (active) in [3].

As for `O=C(NCCC1=CCCCC1)c1cnccn1`, the EC50 with H4 is 11 µM (active); in assay [2] it was 4.95 µM (active); in assay [3], 8.37 µM (active).

Consider `COc1ccc(OCc2cc(C(=O)N(C)Cc3cc(C4CC4)[nH]n3)no2)c(Cl)c1`, for which the EC50 was 37.8 µM (active) in the assay with H4, 69.5 µM (active) in assay [2] and 28.2 µM (active) in [3].

With `Cc1nc2cc(NC(=O)N3CCC(c4ccccc4)C3)ccc2n1C` (stereo unspecified), the EC50 in the assay with H4 is 27.4 µM (active); in [2], 17.7 µM (active); in [3] it was 46.9 µM (active).

On to `Cc1cccc(C(=O)NC2CCCCCCC2)c1`, for which the EC50 in the assay with H4 is > 120 µM (not active); in [2], 11.9 µM (active); in assay [3], 29.8 µM (active).

As to `CCOC(=O)Nc1ccc2c(C)cc(=O)oc2c1`, the EC50 in the assay on H4 was 12.9 µM (active); in [2] it was 30.9 µM (active); in assay [3], 13 µM (active).

On to `CC1Nc2ncnc(N3CCc4ccccc4C3)c2N(Cc2ccc(Cl)cc2)C1=O` (stereo unspecified), for which the AC50 in assay [1] is > 380 µM (inactive). Also, the EC50 at Protein RecA was 30.9 µM (active).

On to `CC1=C(CC(=O)c2ccc(Cl)cc2)C(=O)c2ccccc2C1=O`, for which the AC50 in the assay on INS1 was 8.26 µM (active); in assay [1], 7.84 µM (active). Also, the EC50 on Protein RecA is 1.24 µM (active).

As to `COc1ccccc1NS(=O)(=O)c1ccc(-c2cc(C)no2)s1`, the EC50 is > 120 µM (not active) with H4, > 30 µM (not active) in assay [2] and > 120 µM (not active) in assay [3].

As for `CN1CCN(C2=C(Cl)C(=O)N(C3CCCCC3)C2=O)CC1`, the EC50 is > 120 µM (not active) in the assay on H4, 19.8 µM (active) in [2] and 8.46 µM (active) in assay [3].

For `Cc1n[nH]c2c1C(c1ccsc1)C(C#N)=C(N)O2` (stereo unspecified), the half-maximal activity concentration (AC50) in assay [1] is 11 µM (active). In addition, on Protein RecA, the EC50 was 4.1 µM (active).

For `O=C(NNC(=S)Nc1ccccc1)c1cccs1`, the EC50 is 75.4 µM (active) in the assay with H4, 12.9 µM (active) in assay [2] and 11.2 µM (active) in assay [3].

Take `COc1cccc(-c2cc(O)[nH]n2)c1`: the AC50 in assay [1] is 2.51 µM (active). Besides, the EC50 at Protein RecA is 0.757 µM (active).

Turning to `CC1(C)CC(CCNC(=O)CCl)(c2ccccc2)CCO1` (stereo unspecified), the concentration at half-maximal activity (AC50) in assay [1] is 179 µM (active). Further, the EC50 on Protein RecA was 14.5 µM (active).

For the compound `CC(C)(C)c1[nH]nc2c1C(c1ccco1)C(C#N)=C(N)O2` (stereo unspecified), the AC50 in [1] is 3.88 µM (active). The EC50 at Protein RecA is 1.21 µM (active).

As for `Cc1nc(OCc2ccccc2)c2sc3nc4c(cc3c2n1)COC(C)(C)C4`, the EC50 was > 120 µM (not active) in the assay on H4, 7.5 µM (active) in assay [2] and 9.71 µM (active) in [3].

Consider `Oc1c2c(nn1-c1ccccc1)CCSC2`, for which the AC50 in assay [1] is 12 µM (active). Besides, the EC50 at Protein RecA was 13.7 µM (active).

In the case of `CN1CCc2nc(SC(C(=O)O)c3ccccc3)c(C#N)c(-c3cccs3)c2C1` (stereo unspecified), in assay [1], the AC50 was > 380 µM (inactive). For the same compound, the values for the EC50 (in assay [4]; in assay [5]; on Protein RecA) were 1.2 µM (active), > 30 µM (not active) and 12.3 µM (active), respectively.

With `COc1ccc(Br)cc1[C@H]1[C@@H]2C=CCC[C@@]2(C)C(=O)N1Cc1ccccc1`, the EC50 in the assay with Streptococcus is 11.1 µM (active); in assay [6], 7.12 µM (active); at Streptokinase A it was 37.6 µM (active); on Protein RecA, 26.7 µM (active). The AC50 in [1] is > 380 µM (inactive).
